Test results published in article PMC11062899, “De novo development of small cyclic peptides that are orally bioavailable” (Nature Chemical Biology, 2023).
Where “and” joins values, the source holds several entries; their conditions need not be identical. Identical values can stand only once. Like-named read-outs stand apart in the source and are kept apart here.

Columns and labels:
human α-thrombin = human α-thrombin (Homo sapiens, UniProt P00734); assay: Protease inhibition, Ki for human α-thrombin (fluorogenic substrate Z-Gly-Gly-Arg-AMC); type: biochemical; details: for slope normalized to DMSO, human alpha thrombin inhibition: replicates R1-R3
Method in brief: (§1)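 Inhibition was measured as AMC fluorescence from 50 μM substrate, monitored for 30 min at 25 °C, relative to a peptide-free control. Human and rat enzymes were present at 2 nM and 3 nM final, respectively, in 50 mM Tris-HCl pH 7.4, 150 mM NaCl, 10 mM MgCl2, 1 mM CaCl2. Ki derives from fitted IC50 via Cheng–Prusoff.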

rat α-thrombin = target: T1, rat α-thrombin (Rattus norvegicus, UniProt P18292); assay: Protease inhibition, Ki for rat α-thrombin (fluorogenic substrate Z-Gly-Gly-Arg-AMC); type: biochemical; details: for slope normalized to DMSO, rat alpha thrombin inhibition: replicates R1-R3
T1 construct: rat α-thrombin (Molecular Innovations) were used at final concentrations of 2 nM and 3 nM; purchased Molecular Innovations
Method in brief: as §1

[1] = Passive artificial membrane permeability (PAMPA);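 for Permeability% Average: top well sample relative to theoretical equilibrium sample by TIC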

Structure (SMILES): O=C1C[C@H]2CCCN2C(=O)[C@H](Cc2ccccc2)NC(=O)[C@@H](NC(=O)c2ccc(Cl)cc2F)CCC=CCCCCN1 [compound 45]
- Ki (human α-thrombin; average of R1-R3, read-out: Ki Average, human alpha thrombin inhibition): 204 nM
- IC50 (human α-thrombin; individual replicates R1-R3, read-out: IC50, human alpha thrombin inhibition): 273 nM and 252 nM and 268 nM
- Ki (human α-thrombin; individual replicates R1-R3, read-out: Ki, human alpha thrombin inhibition): 210 nM (2×) and 194 nM (2×) and 207 nM (2×)
- slope normalized to DMSO, human alpha thrombin inhibition (human α-thrombin; peptide 1.00E+02 uM): 11.3 and 11.6 and 10.6
- slope normalized to DMSO, human alpha thrombin inhibition (human α-thrombin; peptide 1.19E-05 uM): 102.6 and 106.2 and 105.7
- slope normalized to DMSO, human alpha thrombin inhibition (human α-thrombin; peptide 1.22E-02 uM): 98.0 and 95.4 and 97.5
- slope normalized to DMSO, human alpha thrombin inhibition (human α-thrombin; peptide 1.25E+01 uM): 13.9 and 11.8 and 11.3
- slope normalized to DMSO, human alpha thrombin inhibition (human α-thrombin; peptide 1.53E-03 uM): 101.7 and 103.3 and 104.5
- slope normalized to DMSO, human alpha thrombin inhibition (human α-thrombin; peptide 1.56E+00 uM): 26.6 and 25.5 (2×)
- slope normalized to DMSO, human alpha thrombin inhibition (human α-thrombin; peptide 1.91E-04 uM): 103.0 and 99.2 and 105.0
- slope normalized to DMSO, human alpha thrombin inhibition (human α-thrombin; peptide 1.95E-01 uM): 64.4 and 63.8 and 63.5
- slope normalized to DMSO, human alpha thrombin inhibition (human α-thrombin; peptide 2.38E-05 uM): 102.9 and 103.4 and 104.0
- slope normalized to DMSO, human alpha thrombin inhibition (human α-thrombin; peptide 2.44E-02 uM): 93.3 and 91.7 and 93.0
- slope normalized to DMSO, human alpha thrombin inhibition (human α-thrombin; peptide 2.50E+01 uM): 12.2 and 11.9 and 11.6
- slope normalized to DMSO, human alpha thrombin inhibition (human α-thrombin; peptide 3.05E-03 uM): 101.3 and 101.9 and 102.4
- slope normalized to DMSO, human alpha thrombin inhibition (human α-thrombin; peptide 3.12E+00 uM): 19.4 (2×) and 18.4
- slope normalized to DMSO, human alpha thrombin inhibition (human α-thrombin; peptide 3.81E-04 uM): 103.1 and 102.3 and 104.4
- slope normalized to DMSO, human alpha thrombin inhibition (human α-thrombin; peptide 3.91E-01 uM): 49.6 and 45.7 and 49.0
- slope normalized to DMSO, human alpha thrombin inhibition (human α-thrombin; peptide 4.77E-05 uM): 101.9 and 103.1 and 105.2
- slope normalized to DMSO, human alpha thrombin inhibition (human α-thrombin; peptide 4.88E-02 uM): 85.5 and 84.9 and 86.4
- slope normalized to DMSO, human alpha thrombin inhibition (human α-thrombin; peptide 5.00E+01 uM): 11.7 and 11.4 and 7.8
- slope normalized to DMSO, human alpha thrombin inhibition (human α-thrombin; peptide 6.10E-03 uM): 99.7 and 99.5 and 102.0
- slope normalized to DMSO, human alpha thrombin inhibition (human α-thrombin; peptide 6.25E+00 uM): 15.9 and 15.6 and 14.9
- slope normalized to DMSO, human alpha thrombin inhibition (human α-thrombin; peptide 7.63E-04 uM): 102.4 (2×) and 103.3
- slope normalized to DMSO, human alpha thrombin inhibition (human α-thrombin; peptide 7.81E-01 uM): 36.6 and 35.0 and 35.1
- slope normalized to DMSO, human alpha thrombin inhibition (human α-thrombin; peptide 9.54E-05 uM): 103.4 and 102.3 and 101.0
- slope normalized to DMSO, human alpha thrombin inhibition (human α-thrombin; peptide 9.77E-02 uM): 76.3 and 76.5 and 77.1
- Ki (rat α-thrombin; average of R1-R3, read-out: Ki Average, rat alpha thrombin inhibition): 36.4 nM
- IC50 (rat α-thrombin; individual replicates R1-R3, read-out: IC50, rat alpha thrombin inhibition): 67 nM and 66.1 nM and 64.2 nM
- Ki (rat α-thrombin; individual replicates R1-R3, read-out: Ki, rat alpha thrombin inhibition): 37.1 nM and 36.6 nM and 35.6 nM
- slope normalized to DMSO, rat alpha thrombin inhibition (rat α-thrombin; peptide 1.00E+02 uM): 6.9 and 7.8 and 7.9
- slope normalized to DMSO, rat alpha thrombin inhibition (rat α-thrombin; peptide 1.19E-05 uM): 99.4 and 99.8 and 100.7
- slope normalized to DMSO, rat alpha thrombin inhibition (rat α-thrombin; peptide 1.22E-02 uM): 80.5 and 81.1 and 80.7
- slope normalized to DMSO, rat alpha thrombin inhibition (rat α-thrombin; peptide 1.25E+01 uM): 8.5 and 8.3 (2×)
- slope normalized to DMSO, rat alpha thrombin inhibition (rat α-thrombin; peptide 1.53E-03 uM): 95.1 and 94.7 (2×)
- slope normalized to DMSO, rat alpha thrombin inhibition (rat α-thrombin; peptide 1.56E+00 uM): 12.6 and 12.3 and 12.5
- slope normalized to DMSO, rat alpha thrombin inhibition (rat α-thrombin; peptide 1.91E-04 uM): 97.1 (2×) and 95.3
- slope normalized to DMSO, rat alpha thrombin inhibition (rat α-thrombin; peptide 1.95E-01 uM): 34.2 and 33.8 and 33.2
- slope normalized to DMSO, rat alpha thrombin inhibition (rat α-thrombin; peptide 2.38E-05 uM): 93.5 and 98.9 and 98.6
- slope normalized to DMSO, rat alpha thrombin inhibition (rat α-thrombin; peptide 2.44E-02 uM): 71.8 and 70.1 and 71.0
- slope normalized to DMSO, rat alpha thrombin inhibition (rat α-thrombin; peptide 2.50E+01 uM): 8.3 and 8.0 and 8.8
- slope normalized to DMSO, rat alpha thrombin inhibition (rat α-thrombin; peptide 3.05E-03 uM): 90.8 and 91.5 and 91.2
- slope normalized to DMSO, rat alpha thrombin inhibition (rat α-thrombin; peptide 3.12E+00 uM): 10.1 (2×) and 10.3
- slope normalized to DMSO, rat alpha thrombin inhibition (rat α-thrombin; peptide 3.81E-04 uM): 97.2 and 95.5 and 95.9
- slope normalized to DMSO, rat alpha thrombin inhibition (rat α-thrombin; peptide 3.91E-01 uM): 22.7 and 22.8 and 22.5
- slope normalized to DMSO, rat alpha thrombin inhibition (rat α-thrombin; peptide 4.77E-05 uM): 97.5 and 97.4 and 98.2
- slope normalized to DMSO, rat alpha thrombin inhibition (rat α-thrombin; peptide 4.88E-02 uM): 57.9 and 58.1 and 57.0
- slope normalized to DMSO, rat alpha thrombin inhibition (rat α-thrombin; peptide 5.00E+01 uM): 8.1 (2×) and 8.0
- slope normalized to DMSO, rat alpha thrombin inhibition (rat α-thrombin; peptide 6.10E-03 uM): 75.2 and 85.9 and 86.8
- slope normalized to DMSO, rat alpha thrombin inhibition (rat α-thrombin; peptide 6.25E+00 uM): 9.3 (2×) and 10.3
- slope normalized to DMSO, rat alpha thrombin inhibition (rat α-thrombin; peptide 7.63E-04 uM): 94.5 (2×) and 95.4
- slope normalized to DMSO, rat alpha thrombin inhibition (rat α-thrombin; peptide 7.81E-01 uM): 16.5 and 16.1 and 16.2
- slope normalized to DMSO, rat alpha thrombin inhibition (rat α-thrombin; peptide 9.54E-05 uM): 96.4 and 97.0 and 98.4
- slope normalized to DMSO, rat alpha thrombin inhibition (rat α-thrombin; peptide 9.77E-02 uM): 46.4 and 46.1 and 46.7
- PAMPA permeability: % permeability ([1]; 50 μM, 12–18 h, acceptor concentration relative to equilibrium): 66 ± 14%
- Permeability% (single replicates R1–R3) ([1]; 50 μM, 12 h (Fig. 6d)): 56.67% and 58.98% and 81.87%
- Permeability% Average ([1]; 50 μM, 12 h (Fig. 6d)): 65.8%
- Papp at 50 μM ([1]; PAMPA, pH 7.4): 10.7 ×10⁻⁶ cm/s
